The record followed here is patent publication US20130225591A1, “IMIDOTHIAZOLE KINASE INHIBITORS” (priority 2009, published 2013).

For one experiment, the target named is T1, CDK5-p25 kinase (Homo sapiens, UniProt Q00535).
T1 construct: purchased Invitrogen PV4677
T1 sequence (Q00535 whole entry): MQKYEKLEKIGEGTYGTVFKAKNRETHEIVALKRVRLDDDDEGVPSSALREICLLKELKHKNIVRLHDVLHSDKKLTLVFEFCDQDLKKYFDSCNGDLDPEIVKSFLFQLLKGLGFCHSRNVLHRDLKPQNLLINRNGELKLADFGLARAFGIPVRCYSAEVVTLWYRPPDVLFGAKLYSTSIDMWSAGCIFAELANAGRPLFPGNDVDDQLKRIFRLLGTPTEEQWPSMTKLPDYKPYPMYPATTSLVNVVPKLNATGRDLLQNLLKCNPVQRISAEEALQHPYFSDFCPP
T1 sequence (Q15078 99-307 partner limits assumed): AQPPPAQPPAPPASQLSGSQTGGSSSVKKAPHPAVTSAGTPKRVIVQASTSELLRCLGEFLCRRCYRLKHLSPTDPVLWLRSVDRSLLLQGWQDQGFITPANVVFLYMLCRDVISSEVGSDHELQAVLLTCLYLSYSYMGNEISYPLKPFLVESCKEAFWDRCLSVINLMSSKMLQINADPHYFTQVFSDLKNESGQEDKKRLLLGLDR
As to the kind of experiment: CDK5-p25 kinase enzymatic assay. The format is biochemical. Conditions: 50 nM-99 nM; 5 uM ATP, 0.3 nM CDK5-p25; read-out: IC50 potency, CDK5-p25 kinase enzymatic assay, 50 nM-99 nM. As to the method: CDK5-p25 kinase (Invitrogen PV4677) enzymatic activity was measured using electrophoretic separation and fluorescent detection to monitor phosphorylation of a fluorescently labeled histone H1-derived peptide substrate, FL29 (5-FAM-GGGPATPKKAKKL-CONH2, Caliper #760429)
First, 0.25 uL of serially diluted compound in DMSO at 100× concentration was transferred into each well of a 384-well polystyrene assay plate. To this was added 15 uL of a 1.67× enzyme solution (500 pM enzyme, 1 mM DTT (Sigma D9779), 1× reconstitution buffer with protease inhibitor (Caliper #700329 proprietary formulation)), followed by centrifugation for 1 min at 1000 rpm, and incubation for 5-15 min at room temperature to allow binding of compound to enzyme. To initiate the reaction, 10 uL of substrate/ATP mix (245 mM Hepes pH 7.5, 0.003% Brij 35, 0.004% Tween, 12.75 uM ATP, 3.75 uM FL29 peptide) were added to each well, followed by centrifugation at 1000 rpm for 1 min. The reaction was then incubated at room temperature for 30 min. Final assay conditions were: 0.3 nM CDK5-p25, 1.5 uM peptide, 5 uM ATP, 0.6 mM DTT, 1% DMSO, 98 mM HEPES pH 7.5.
After incubation, reactions were quenched by the addition of 45 uL Caliper termination solution (Caliper proprietary formula), followed by centrifugation at 1000 rpm for 1 min. Extent of reaction (percentage conversion of substrate to phosphorylated product) was then measured using the Caliper EZ II reader. Dose-response curves were created by plotting the inhibition of enzyme activity (normalized relative to vehicle treated and no ATP control reactions) as a function of the log of compound concentration. The curve was analyzed using a four parameter logistical fit to calculate IC50 values.
As for `O=C(Cc1ccc(CO)cc1)Nc1ncn2c(C(F)(F)F)csc12` [Example 71, 2-[4-(hydroxymethyl)phenyl]-N-[3-(trifluoromethyl)imidazo[5,1-b][1,3]thiazol-7-yl]acetamide], the half-inhibitory concentration (IC50) lay within 50 to 99 nM.

On to `O=C(Cc1ccc(C(=O)N2CCCC2)cc1)Nc1ncn2c(C(F)(F)F)csc12` [Example 74, 2-[4-(pyrrolidin-1-ylcarbonyl)phenyl]-N-[3-(trifluoromethyl)imidazo[5,1-b][1,3]thiazol-7-yl]acetamide], for which the IC50 was 50 to 99 nM.

The experiment is the same for the next values; noted with them: 500 nM-3 μM; 5 uM ATP, 0.3 nM CDK5-p25; read-out: IC50 potency, CDK5-p25 kinase enzymatic assay, 500 nM-3 μM.
Regarding `Cc1csc2c(NC(=O)Cc3ccc4ccccc4c3)ncn12` [Example 65, N-(3-methylimidazo [5,1-b][1,3]thiazol-7-yl)-2-(2-naphthyl) acetamide], the IC50 was 500 to 3000 nM. For the molecule `O=C(Nc1ncn2c(C(F)(F)F)csc12)C(CO)c1ccc2ccccc2c1` (stereo not shown) [Example 67, 3-hydroxy-2-(2-naphthyl)-N-[3-(trifluoromethyl)imidazo[5,1-b][1,3]thiazol-7-yl]propanamide], the half-inhibitory concentration (IC50) lay in the range of 500 to 3000 nM. Same read-out and setting: next, `O=C(Cc1ccc2ccccc2c1)Nc1ncn2ccsc12` [Example 82, N-imidazo[5,1-b][1,3]thiazol-7-yl-2-(2-naphthyl)acetamide]: 500 to 3000 nM.

The experiment is the same for the next values; noted with them: 5 uM ATP, 0.3 nM CDK5-p25; read-out: IC50 potency, CDK5-p25 kinase enzymatic assay, 100 nM-499 nM.
Turning to `O=C(CN1Cc2ccccc2C1)Nc1ncn2c(C(F)(F)F)csc12` [Example 68, 2-(1,3-dihydro-2H-isoindol-2-yl)-N-[3-(trifluoromethyl)imidazo[5,1-b][1,3]thiazol-7-yl]acetamide], the IC50 was 100 to 499 nM. On to `O=C(Cc1ccnnc1)Nc1ncn2c(C(F)(F)F)csc12` [Example 72, 2-pyridazin-4-yl-N-[3-(trifluoromethyl)imidazo[5,1-b][1,3]thiazol-7-yl]acetamide], for which the IC50 lay within 100 to 499 nM.

Take `NCc1cccc(CC(=O)Nc2ncn3c(C(F)(F)F)csc23)c1` [Example 75, 2-[3-(aminomethyl)phenyl]-N-[3-(trifluoromethyl)imidazo[5,1-b][1,3]thiazol-7-yl]acetamide]: the IC50 is 100 to 499 nM.

Staying with this experiment, now noted: '<50 nM'; 5 uM ATP, 0.3 nM CDK5-p25; read-out: IC50 potency, CDK5-p25 kinase enzymatic assay, <50 nM.
In the case of `O=C(Cc1cccc2ccccc12)Nc1ncn2c(C(F)(F)F)csc12` [Example 66, 2-(1-naphthyl)-N-[3-(trifluoromethyl)imidazo[5,1-b][1,3]thiazol-7-yl]acetamide], the concentration for half-maximal inhibition (IC50) is less than 50 nM.

As to `Cc1nc2cc(CC(=O)Nc3ncn4c(C(F)(F)F)csc34)ccc2o1` [Example 69, 2-(2-methyl-1,3-benzoxazol-5-yl)-N-[3-(trifluoromethyl)imidazo[5,1-b][1,3]thiazol-7-yl]acetamide], the IC50 was less than 50 nM. On the same count and under the same terms, under `O=C(Cc1ccc(-c2nnco2)cc1)Nc1ncn2c(C(F)(F)F)csc12` [Example 70, 2-[4-(1,3,4-oxadiazol-2-yl)phenyl]-N-[3-(trifluoromethyl)imidazo[5,1-b][1,3]thiazol-7-yl]acetamide] stands less than 50 nM; under `O=C(Cc1ccc2[nH]cnc2c1)Nc1ncn2c(C(F)(F)F)csc12` [Example 73, 2-(1H-benzimidazol-5-yl)-N-[3-(trifluoromethyl)imidazo[5,1-b][1,3]thiazol-7-yl]acetamide], less than 50 nM; under `O=C(Cc1ccc(NC(=O)c2ccccc2)cc1)Nc1ncn2c(C(F)(F)F)csc12` [Example 79, N-[4-(2-oxo-2-{[3-(trifluoromethyl)imidazo[5,1-b][1,3]thiazol-7-yl)amino}ethyl)phenyl] benzamide], less than 50 nM. In the case of `O=C(Cc1cccc(-c2nn[nH]n2)c1)Nc1ncn2c(C(F)(F)F)csc12` [Example 80, 2-[3-(2H-tetrazol-5-yl)phenyl]-N-[3-(trifluoromethyl)imidazo[5,1-b][1,3]thiazol-7-yl]acetamide], the IC50 was less than 50 nM.

For the molecule `O=C(Cc1ccc(-c2nn[nH]n2)cc1)Nc1ncn2c(C(F)(F)F)csc12` [Example 81, 2-[4-(2H-tetrazol-5-yl)phenyl]-N-[3-(trifluoromethyl)imidazo[5,1-b][1,3]thiazol-7-yl]acetamide], the concentration for half-maximal inhibition (IC50) is less than 50 nM. Still for that read-out and setting: next, `O=C(Cc1ccc2ccccc2c1)Nc1ncn2ccsc12` [Example 82, N-imidazo[5,1-b][1,3]thiazol-7-yl-2-(2-naphthyl)acetamide]: less than 50 nM.
